{"source": "patent US10266526B2", "about": "“Substituted 1,2,3-triazoles as SMYD inhibitors for treating cancer” (EPIZYME, INC., priority 2014, dated 2019)"}
{"target": "SMYD3 (Homo sapiens (Human), UniProt Q9H7B4)", "sequence (Q9H7B4 whole entry)": "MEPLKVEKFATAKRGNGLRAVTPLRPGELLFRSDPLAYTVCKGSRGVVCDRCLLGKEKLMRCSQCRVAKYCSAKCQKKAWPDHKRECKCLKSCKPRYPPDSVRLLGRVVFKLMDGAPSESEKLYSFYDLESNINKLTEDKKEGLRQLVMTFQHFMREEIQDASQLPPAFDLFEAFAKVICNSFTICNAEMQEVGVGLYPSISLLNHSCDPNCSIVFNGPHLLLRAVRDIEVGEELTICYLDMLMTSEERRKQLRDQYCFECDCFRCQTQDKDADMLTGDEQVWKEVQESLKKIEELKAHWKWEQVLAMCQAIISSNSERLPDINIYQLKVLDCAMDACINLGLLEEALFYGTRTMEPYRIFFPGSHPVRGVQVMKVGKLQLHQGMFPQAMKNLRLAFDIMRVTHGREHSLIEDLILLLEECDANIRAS", "assay": "SMYD3 biochemical assay (SMYD3 enzyme assay on MEKK2 protein substrate, 3H-SAM scintillation proximity assay)", "settings": "read-out: SMYD3 Biochem IC50", "procedure,_shortened": "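Detection used scintillation proximity beads to capture ³H-methylated GST-MEKK2 after quench with 100 uM final cold SAM. The reaction was started by SAM/MEKK2 addition after a 30 min RT compound–enzyme preincubation. Enzyme was tag-free full-length human SMYD3 from E. coli, in buffer of 25 mM Tris-Cl pH 8.0, 1 mM TCEP, 0.005% BSG, 0.005% Tween 20.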", "units": {"IC50": "µM"}}
{"compound": "CC(C)(CNC(=O)CCN)CNS(=O)(=O)c1ccc2c(c1)CC(=O)N2", "note": "[compound 468, 3-amino-N-(2,2-dimethyl-3-((2-oxoindoline)-5-sulfonamido)propyl)propanamide]", "IC50": 18.3}
{"compound": "CC(NC(=O)c1ccc2c(c1)CNC2=O)C1CCN(C(=O)[C@H](C)N)CC1", "note": "(stereo partly drawn) [compound 469, N-(1-(1-(L-alanyl)piperidin-4-yl)ethyl)-1-oxoisoindoline-5-carboxamide]", "IC50": "> 100"}
{"compound": "N[C@H]1CC[C@H](NC(=O)c2ccc3c(c2)C(=O)C(=O)N3)CC1", "note": "[compound 470, N-((1r,4r)-4-aminocyclohexyl)-2,3-dioxoindoline-5-carboxamide]", "IC50": 7.46}
{"compound": "NCCC(=O)N[C@H]1CC[C@H](NC(=O)c2ccc3c(c2)CC(=O)N3)CC1", "note": "[compound 471, N-((1r,4r)-4-(3-aminopropanamido)cyclohexyl)-2-oxoindoline-5-carboxamide]", "IC50": 0.61}
{"compound": "CC(NC(=O)c1ccc(-n2cncn2)cc1)C1CCN(C(=O)[C@H](C)N)CC1", "note": "(stereo partly drawn) [compound 472, N-(1-(1-(L-alanyl)piperidin-4-yl)ethyl)-4-(1H-1,2,4-triazol-1-yl)benzamide]", "IC50": "> 100"}
{"compound": "NCCC(=O)N[C@H]1CC[C@H](NC(=O)c2ccc(-n3cncn3)cc2)CC1", "note": "[compound 473, N-((1r,4r)-4-(3-aminopropanamido)cyclohexyl)-4-(1H-1,2,4-triazol-1-yl)benzamide]", "IC50": 53.1}
{"compound": "CC(NC(=O)c1cc2ccccc2nc1O)C1CCN(C(=O)[C@H](C)N)CC1", "note": "(stereo partly drawn) [compound 474, N-(1-(1-(L-alanyl)piperidin-4-yl)ethyl)-2-hydroxyquinoline-3-carboxamide]", "IC50": 22.1}
{"compound": "N[C@H]1CC[C@H](NC(=O)c2cc3ccccc3nc2O)CC1", "note": "[compound 475, N-((1r,4r)-4-aminocyclohexyl)-2-hydroxyquinoline-3-carboxamide]", "IC50": 22.2}
{"compound": "CC(NC(=O)Cc1cccc(C(F)(F)F)c1)C1CCN(C(=O)[C@H](C)N)CC1", "note": "(stereo partly drawn) [compound 476, N-(1-(1-(L-alanyl)piperidin-4-yl)ethyl)-2-(3-(trifluoromethyl)phenyl)acetamide]", "IC50": 51.1}
{"compound": "NCCC(=O)N[C@H]1CC[C@H](NC(=O)Cc2cccc(C(F)(F)F)c2)CC1", "note": "[compound 477, 3-amino-N-((1r,4r)-4-(2-(3-(trifluoromethyl)phenyl)acetamido)cyclohexyl)propanamide]", "IC50": 22.8}
{"compound": "Cc1nc2ccccc2c(C(=O)N[C@H]2CC[C@H](NC(=O)CCN)CC2)c1N", "note": "[compound 478, 3-amino-N-((1r,4r)-4-(3-aminopropanamido)cyclohexyl)-2-methylquinoline-4-carboxamide]", "IC50": 31.6}
{"compound": "NCCC(=O)N[C@H]1CC[C@H](NC(=O)c2cc3cccc(O)c3cc2O)CC1", "note": "[compound 479, N-((1r,4r)-4-(3-aminopropanamido)cyclohexyl)-3,5-dihydroxy-2-naphthamide]", "IC50": 5.02}
{"compound": "N[C@H]1CC[C@H](NC(=O)c2ncccc2O)CC1", "note": "[compound 480, N-((1r,4r)-4-aminocyclohexyl)-3-hydroxypicolinamide]", "IC50": "> 100"}
{"compound": "NCCC(=O)N[C@H]1CC[C@H](NC(=O)C2=NNC(=O)CC2)CC1", "note": "[compound 481, N-((1r,4r)-4-(3-aminopropanamido)cyclohexyl)-6-oxo-1,4,5,6-tetrahydropyridazine-3-carboxamide]", "IC50": 15.1}
{"compound": "NCCC(=O)N[C@H]1CC[C@H](NC(=O)/C=C/c2c[nH]cn2)CC1", "note": "[compound 482, (E)-N-((1r,4r)-4-(3-aminopropanamido)cyclohexyl)-3-(1H-imidazol-4-yl)acrylamide]", "IC50": 71.1}
{"compound": "NCCC(=O)N1CCC(CC(=O)N2CCC3NC(=O)CC3C2)CC1", "note": "(centres unmarked) [compound 483, 5-(2-(1-(3-aminopropanoyl)piperidin-4-yl)acetyl)octahydro-2H-pyrrolo[3,2-c]pyridin-2-one]", "IC50": 10.2}
{"compound": "N[C@H]1CC[C@H](NC(=O)c2noc(C3CC3)n2)CC1", "note": "[compound 484, N-((1r,4r)-4-aminocyclohexyl)-5-cyclopropyl-1,2,4-oxadiazole-3-carboxamide]", "IC50": 85.7}
{"compound": "NCCC(=O)N[C@H]1CC[C@H](NC(=O)c2noc(C3CC3)n2)CC1", "note": "[compound 485, N-((1r,4r)-4-(3-aminopropanamido)cyclohexyl)-5-cyclopropyl-1,2,4-oxadiazole-3-carboxamide]", "IC50": 12.9}
{"compound": "CC(C)(CNC(=O)CN)CNS(=O)(=O)c1ccc2c(c1)CC(=O)N2", "note": "[compound 486, 2-amino-N-(2,2-dimethyl-3-((2-oxoindoline)-5-sulfonamido)propyl)acetamide]", "IC50": 18.8}
{"compound": "N[C@H]1CC[C@H](NC(=O)c2ccc3c(c2)CNC3=O)CC1", "note": "[compound 487, N-((1r,4r)-4-aminocyclohexyl)-1-oxoisoindoline-5-carboxamide]", "IC50": 37.9}
{"compound": "CC(NC(=O)c1ccc2c(c1)C(=O)C(=O)N2)C1CCN(C(=O)[C@H](C)N)CC1", "note": "(stereo partly drawn) [compound 488, N-(1-(1-(L-alanyl)piperidin-4-yl)ethyl)-2,3-dioxoindoline-5-carboxamide]", "IC50": 14.1}
{"compound": "Cc1nc2ccccc2c(C(=O)NC(C)C2CCN(C(=O)[C@H](C)N)CC2)c1N", "note": "(stereo partly drawn) [compound 489, N-(1-(1-(L-alanyl)piperidin-4-yl)ethyl)-3-amino-2-methylquinoline-4-carboxamide]", "IC50": 31.6}
{"compound": "N[C@H]1CC[C@H](NC(=O)c2cc3c(cc2Cl)NC(=O)C3)CC1", "note": "[compound 492, N-((1r,4r)-4-aminocyclohexyl)-6-chloro-2-oxoindoline-5-carboxamide]", "IC50": 1.59}
{"compound": "N[C@H]1CC[C@H](NC(=O)c2cncnc2O)CC1", "note": "[compound 493, N-((1r,4r)-4-aminocyclohexyl)-4-hydroxypyrimidine-5-carboxamide]", "IC50": "> 50"}
{"compound": "CC(NC(=O)/C=C/c1c[nH]cn1)C1CCN(C(=O)[C@H](C)N)CC1", "note": "(stereo partly drawn) [compound 494, (E)-N-(1-(1-(L-alanyl)piperidin-4-yl)ethyl)-3-(1H-imidazol-4-yl)acrylamide]", "IC50": "> 100"}
{"compound": "N[C@H]1CC[C@H](NC(=O)/C=C/c2c[nH]cn2)CC1", "note": "[compound 495, (E)-N-((1r,4r)-4-aminocyclohexyl)-3-(1H-imidazol-4-yl)acrylamide]", "IC50": "> 100"}
{"compound": "CC(NC(=O)c1cc2cn[nH]c2cn1)C1CCN(C(=O)[C@H](C)N)CC1", "note": "(stereo partly drawn) [compound 496, N-(1-(1-(L-alanyl)piperidin-4-yl)ethyl)-1H-pyrazolo[3,4-c]pyridine-5-carboxamide]", "IC50": 6.57}
{"compound": "N[C@H]1CC[C@H](NC(=O)c2cc3cn[nH]c3cn2)CC1", "note": "[compound 497, N-((1r,4r)-4-aminocyclohexyl)-1H-pyrazolo[3,4-c]pyridine-5-carboxamide]", "IC50": 35.7}
{"compound": "CC(NC(=O)c1nc2ccc(F)cc2s1)C1CCN(C(=O)[C@H](C)N)CC1", "note": "(stereo partly drawn) [compound 498, N-(1-(1-(L-alanyl)piperidin-4-yl)ethyl)-6-fluorobenzo[d]thiazole-2-carboxamide]", "IC50": 51}
{"compound": "NCCC(=O)N[C@H]1CC[C@H](NC(=O)c2nc3ccc(F)cc3s2)CC1", "note": "[compound 499, N-((1r,4r)-4-(3-aminopropanamido)cyclohexyl)-6-fluorobenzo[d]thiazole-2-carboxamide]", "IC50": 86.3}
{"compound": "N[C@H]1CC[C@H](NC(=O)c2nc3ccc(F)cc3s2)CC1", "note": "[compound 500, N-((1r,4r)-4-aminocyclohexyl)-6-fluorobenzo[d]thiazole-2-carboxamide]", "IC50": "> 100"}
{"compound": "NC(=O)Cn1cc(C(=O)N[C@H]2CC[C@H](N)CC2)nn1", "note": "[compound 501, 1-(2-amino-2-oxoethyl)-N-((1r,4r)-4-aminocyclohexyl)-1H-1,2,3-triazole-4-carboxamide]", "IC50": 50}
{"compound": "N[C@H]1CC[C@H](NC(=O)c2ncc[nH]2)CC1", "note": "[compound 502, N-((1r,4r)-4-aminocyclohexyl)-1H-imidazole-2-carboxamide]", "IC50": "> 100"}
{"compound": "NCCC(=O)N[C@H]1CC[C@H](NC(=O)c2ccc3c(c2)CNC3=O)CC1", "note": "[compound 503, N-((1r,4r)-4-(3-aminopropanamido)cyclohexyl)-1-oxoisoindoline-5-carboxamide]", "IC50": "> 100"}
{"compound": "NCCC(=O)N[C@H]1CC[C@H](NC(=O)c2ccc3c(c2)C(=O)C(=O)N3)CC1", "note": "[compound 504, N-((1r,4r)-4-(3-aminopropanamido)cyclohexyl)-2,3-dioxoindoline-5-carboxamide]", "IC50": 5.38}
{"compound": "NC1CCC(NC(=O)c2cccc3c2NC(=O)C3)CC1", "note": "(centres unmarked) [compound 506, N-(4-aminocyclohexyl)-2-oxoindoline-7-carboxamide]", "IC50": 42.3}
{"compound": "Cn1ncnc1C(=O)N[C@H]1CC[C@H](N)CC1", "note": "[compound 507, N-((1r,4r)-4-aminocyclohexyl)-1-methyl-1H-1,2,4-triazole-5-carboxamide]", "IC50": "> 100"}
{"compound": "Nc1n[nH]c(C(=O)N[C@H]2CC[C@H](N)CC2)n1", "note": "[compound 508, 3-amino-N-((1r,4r)-4-aminocyclohexyl)-1H-1,2,4-triazole-5-carboxamide]", "IC50": "> 50"}
{"compound": "CC(NC(=O)c1cncnc1O)C1CCN(C(=O)[C@H](C)N)CC1", "note": "(stereo partly drawn) [compound 509, N-(1-(1-(L-alanyl)piperidin-4-yl)ethyl)-4-hydroxypyrimidine-5-carboxamide]", "IC50": "> 50"}
{"compound": "NCCC(=O)N[C@H]1CC[C@H](NC(=O)c2cncnc2O)CC1", "note": "[compound 510, N-((1r,4r)-4-(3-aminopropanamido)cyclohexyl)-4-hydroxypyrimidine-5-carboxamide]", "IC50": "> 50"}
{"compound": "CC(NC(=O)c1ncccc1O)C1CCN(C(=O)[C@H](C)N)CC1", "note": "(stereo partly drawn) [compound 511, N-(1-(1-(L-alanyl)piperidin-4-yl)ethyl)-3-hydroxypicolinamide]", "IC50": "> 50"}
{"compound": "NCCC(=O)N[C@H]1CC[C@H](NC(=O)c2ncccc2O)CC1", "note": "[compound 512, N-((1r,4r)-4-(3-aminopropanamido)cyclohexyl)-3-hydroxypicolinamide]", "IC50": "> 50"}
{"compound": "CC(NC(=O)c1cncc(O)c1)C1CCN(C(=O)[C@H](C)N)CC1", "note": "(stereo partly drawn) [compound 513, N-(1-(1-(L-alanyl)piperidin-4-yl)ethyl)-5-hydroxynicotinamide]", "IC50": "> 50"}
{"compound": "NCCC(=O)N[C@H]1CC[C@H](NC(=O)c2cncc(O)c2)CC1", "note": "[compound 514, N-((1r,4r)-4-(3-aminopropanamido)cyclohexyl)-5-hydroxynicotinamide]", "IC50": "> 50"}
